Assay results as given in article PMC5895699, “Catalytically active inclusion bodies of L-lysine decarboxylase from E. coli for 1,5-diaminopentane production” (Scientific Reports, 2018).

Molecular target: T1, EcLDCc-CatIBs (EcLDCc-TDoT fusion; constitutive L-lysine decarboxylase from E. coli) (Escherichia coli, UniProt P52095)
T1 construct: gene ldcC; full-length EcLDCc with C-terminal 3xGGGS linker and TDoT coiled-coil tag (tetrabrachion, Staphylothermus marinus), pET28, E. coli BL21(DE3)
T1 sequence (P52095 1-713): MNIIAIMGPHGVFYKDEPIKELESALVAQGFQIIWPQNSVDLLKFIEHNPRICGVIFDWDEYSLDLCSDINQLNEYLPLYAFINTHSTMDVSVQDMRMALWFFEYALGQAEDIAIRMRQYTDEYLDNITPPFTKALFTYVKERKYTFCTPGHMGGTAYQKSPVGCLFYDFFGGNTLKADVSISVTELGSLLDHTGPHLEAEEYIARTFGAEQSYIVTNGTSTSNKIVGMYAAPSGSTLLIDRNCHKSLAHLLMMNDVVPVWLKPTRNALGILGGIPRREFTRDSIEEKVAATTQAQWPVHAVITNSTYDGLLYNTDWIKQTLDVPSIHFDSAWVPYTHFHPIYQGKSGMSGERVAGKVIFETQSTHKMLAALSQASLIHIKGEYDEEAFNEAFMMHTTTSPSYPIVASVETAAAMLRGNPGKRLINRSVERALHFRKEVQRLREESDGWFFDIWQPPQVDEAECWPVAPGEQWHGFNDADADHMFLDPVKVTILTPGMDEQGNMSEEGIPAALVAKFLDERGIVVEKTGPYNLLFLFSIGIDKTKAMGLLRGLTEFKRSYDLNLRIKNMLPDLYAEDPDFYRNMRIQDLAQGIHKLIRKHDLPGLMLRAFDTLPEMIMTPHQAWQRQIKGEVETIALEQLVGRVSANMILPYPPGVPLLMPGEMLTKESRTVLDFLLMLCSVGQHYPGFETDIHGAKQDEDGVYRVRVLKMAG
Assay: HPLC of […],5-diaminopentane formed, OPA derivatisation
Format: biochemical
Conditions: 50 mM KPi buffer, 10 mM L-lysine, 30 °C, pH 7-9 (general range; pH 9 differs); CatIB enzyme as prepared, not PLP-depleted

% activity increase at 0.1 mM PLP: 5–15%
Compound: Cc1ncc(COP(=O)(O)O)c(C=O)c1O [pyridoxal-5′-phosphate]
